Experimental data reported in US20090246292A1, “ANTIMICROBIAL FORMULATIONS COMPRISING A QUINONE AND A COPPER SALT” (priority 2006, published 2009).
Values joined by “and” are separate entries in the source; they are usually repeats but may differ in a detail not shown here. Identical values can stand only once.

Experiments:
P. acnes NCTC 737 [1] = experiment: Minimum inhibitory concentration (MIC) assay; assay type: cell-based, Propionibacterium acnes
From the text: (a) Minimum Inhibitory Concentration (MIC) Assay
The culture media were as described above.
The assays included both negative (culture medium with no micro-organisms) and positive (culture medium plus diluting solvent plus micro-organism) controls.

P. acnes PRP-003 [2] = conditions: P. acnes PRP-003 (resistance Tet); agar dilution
Experimental: (§1) This is a standard international method for quantitatively assessing the antimicrobial activity of a compound in a solid medium. […] A set amount of these antimicrobial stock solutions was then added to molten agar medium (ca. 55° C.), mixed thoroughly, poured into sterile Petri dishes and allowed to cool/set. The culture medium was as described above.
(§2) A Multipoint™ Inoculator (AQS Manufacturing Ltd, UK) was used to inoculate the plates by spotting the inocula onto the surface of the agar, delivering approximately 1 to 2 μl per spot (yielding 10^5 CFU (colony forming units) per spot).
(§3) The plate(s) were then incubated under the conditions described above, following which they were examined visually for signs of bacterial growth. The MIC value was ascertained when there was a marked reduction in, or total loss of, growth on the test plate at the lowest concentration as compared to that of the growth on the control plate.

P. acnes PRP-004 [3] = conditions: P. acnes PRP-004 (resistance Tet); agar dilution
Experimental: as §1, §2, §3

P. acnes PRP-007 [4] = conditions: P. acnes PRP-007 (resistance Clin); agar dilution
Experimental: as §1, §2, §3

P. acnes PRP-010 [5] = conditions: P. acnes PRP-010 (resistance MLSK); agar dilution
Experimental: as §1, §2, §3

P. acnes PRP-017 [6] = conditions: P. acnes PRP-017 (resistance MLS); agar dilution
Experimental: as §1, §2, §3

P. acnes PRP-023 = P. acnes PRP-023 (resistance MLSK); agar dilution
Experimental: as §1, §2, §3

P. acnes PRP-026 [7] = conditions: P. acnes PRP-026 (resistance MLS); agar dilution
Experimental: as §1, §2, §3

P. acnes PRP-046 [8] = conditions: P. acnes PRP-046 (resistance None); agar dilution
Experimental: as §1, §2, §3

P. acnes PRP-053 [9] = conditions: P. acnes PRP-053 (resistance Tet/MLS); agar dilution
Experimental: as §1, §2, §3

P. acnes PRP-068 [10] = conditions: P. acnes PRP-068 (resistance Ery); agar dilution
Experimental: as §1, §2, §3

P. granulosum PRP-005 = P. granulosum PRP-005 (resistance MLSK); agar dilution
Experimental: as §1, §2, §3

P. granulosum PRP-006 = P. granulosum PRP-006 (resistance MLS); agar dilution
Experimental: as §1, §2, §3

P. granulosum PRP-019 = P. granulosum PRP-019 (resistance MLSK); agar dilution
Experimental: as §1, §2, §3

P. granulosum PRP-043 = P. granulosum PRP-043 (resistance MLS); agar dilution
Experimental: as §1, §2, §3

P. granulosum PRP-055 = P. granulosum PRP-055 (resistance None); agar dilution
Experimental: as §1, §2, §3

P. acnes PRP-003 [11] = experiment: Disc diffusion assay (DDA), also supplemented; assay type: cell-based, Propionibacterium acnes; conditions: 200 μg per disc
Experimental: (§4) The propionibacteria were cultured and maintained on Wilkins-Chalgren Anaerobe Medium (agar and broth) at pH 6.0; all cultures were incubated anaerobically at 37° C. for 72 hours.
(§5) A sterile paper disc was impregnated with a sample of the test compound in a suitable solvent and 30 minutes allowed for the solvents to evaporate (where possible). The disc was then placed on an agar plate onto which the test micro-organism had been inoculated. The plate was then incubated under the conditions described above, following which it was examined visually for signs of bacterial growth. […] The diameter of this zone of “inhibition” was measured using a ProtoCOL™ automated zone sizer (Synbiosis, Cambridge, UK).
(§6) For assays using Propionibacterium spp. strains the supplements used in the examples below were lipid (either Tween™ 80 or triolein, both at 1% v/v) and sodium chloride (100 mM).

P. acnes PRP-004 [12] = experiment: Disc diffusion assay (DDA), also supplemented; assay type: cell-based, Propionibacterium acnes; conditions: 200 μg per disc
Experimental: as §4, §5, §6

P. acnes PRP-007 [13] = experiment: Disc diffusion assay (DDA), also supplemented; assay type: cell-based, Propionibacterium acnes; conditions: 200 μg per disc
Experimental: as §4, §5, §6

P. acnes PRP-008 = experiment: Disc diffusion assay (DDA), also supplemented; assay type: cell-based, Propionibacterium acnes; conditions: 200 μg per disc
Experimental: as §4, §5, §6

P. acnes PRP-010 [14] = experiment: Disc diffusion assay (DDA), also supplemented; assay type: cell-based, Propionibacterium acnes; conditions: 200 μg per disc
Experimental: as §4, §5, §6

P. acnes PRP-017 [15] = experiment: Disc diffusion assay (DDA), also supplemented; assay type: cell-based, Propionibacterium acnes; conditions: 200 μg per disc
P. acnes PRP-026 [16] = experiment: Disc diffusion assay (DDA), also supplemented; assay type: cell-based, Propionibacterium acnes; conditions: 200 μg per disc
Experimental: as §4, §5, §6

P. acnes PRP-046 [17] = experiment: Disc diffusion assay (DDA), also supplemented; assay type: cell-based, Propionibacterium acnes; conditions: 200 μg per disc
P. acnes PRP-053 [18] = experiment: Disc diffusion assay (DDA), also supplemented; assay type: cell-based, Propionibacterium acnes; conditions: 200 μg per disc
Experimental: as §4, §5, §6

P. acnes PRP-068 [19] = experiment: Disc diffusion assay (DDA), also supplemented; assay type: cell-based, Propionibacterium acnes; conditions: 200 μg per disc
Experimental: as §4, §5, §6

P. acnes NCTC 737 [20] = experiment: Disc diffusion assay (DDA), also supplemented;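 note: paper disc carrying compound placed on inoculated Wilkins-Chalgren Anaerobe agar pH 6.0, with lipid or NaCl supplement where listed, anaerobic 37 °C for 72 h, inhibition zone diameter read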

O.O.O.O.O.O=S(=O)([O-])[O-].[Cu+2] [Copper (II) sulphate pentahydrate]
MIC (P. acnes NCTC 737 [1]): 15.6 µg/mL
MIC/MBC ratio (P. acnes NCTC 737 [1]): 0.125
MIC (P. acnes PRP-003 [2]): 7.8 µg/mL
MIC (P. acnes PRP-004 [3]): 7.8 µg/mL
MIC (P. acnes PRP-007 [4]): 7.8 µg/mL
MIC (P. acnes PRP-010 [5]): 7.8 µg/mL
MIC (P. acnes PRP-017 [6]): 7.8 µg/mL
MIC (P. acnes PRP-023): 7.8 µg/mL
MIC (P. acnes PRP-026 [7]): 7.8 µg/mL
MIC (P. acnes PRP-046 [8]): 7.8 µg/mL
MIC (P. acnes PRP-053 [9]): 7.8 µg/mL
MIC (P. acnes PRP-068 [10]): 7.8 µg/mL
MIC (P. granulosum PRP-005): 62.5 µg/mL
MIC (P. granulosum PRP-006): 62.5 µg/mL
MIC (P. granulosum PRP-019): 62.5 µg/mL
MIC (P. granulosum PRP-043): 7.8 µg/mL
MIC (P. granulosum PRP-055): 62.5 µg/mL
DDA + salt (P. acnes PRP-003 [11]): 51.99 mm
DDA + lipid (P. acnes PRP-003 [11]; 1% (v/v) triolein): 45.91 mm
DDA (P. acnes PRP-003 [11]; single replicate): 52.60 mm
DDA (P. acnes PRP-003 [11]; Table 12 series): 50.18 mm
DDA + salt (P. acnes PRP-004 [12]): 52.60 mm
DDA + lipid (P. acnes PRP-004 [12]; 1% (v/v) triolein): 45.61 mm
DDA (P. acnes PRP-004 [12]; single replicate): 51.08 mm
DDA (P. acnes PRP-004 [12]; Table 12 series): 44.85 mm
DDA + salt (P. acnes PRP-007 [13]): 55.03 mm
DDA + lipid (P. acnes PRP-007 [13]; 1% (v/v) triolein): 48.95 mm
DDA (P. acnes PRP-007 [13]; single replicate): 56.55 mm
DDA (P. acnes PRP-007 [13]; Table 12 series): 40.35 mm
DDA + salt (P. acnes PRP-008): 51.99 mm
DDA + lipid (P. acnes PRP-008; 1% (v/v) triolein): 48.65 mm
DDA (P. acnes PRP-008; single replicate): 52.29 mm
DDA (P. acnes PRP-008; Table 12 series): 43.70 mm
DDA + salt (P. acnes PRP-010 [14]): 62.33 mm
DDA + lipid (P. acnes PRP-010 [14]; 1% (v/v) triolein): 46.82 mm
DDA (P. acnes PRP-010 [14]; single replicate): 63.24 mm
DDA (P. acnes PRP-010 [14]; Table 12 series): 46.73 mm
DDA + salt (P. acnes PRP-017 [15]): 56.85 mm
DDA + lipid (P. acnes PRP-017 [15]; 1% (v/v) triolein): 55.03 mm
DDA (P. acnes PRP-017 [15]; single replicate): 51.38 mm
DDA (P. acnes PRP-017 [15]; Table 12 series): 46.31 mm
DDA + salt (P. acnes PRP-026 [16]): 52.90 mm
DDA + lipid (P. acnes PRP-026 [16]; 1% (v/v) triolein): 53.21 mm
DDA (P. acnes PRP-026 [16]; single replicate): 51.08 mm
DDA (P. acnes PRP-026 [16]; Table 12 series): 56.14 mm
DDA + salt (P. acnes PRP-046 [17]): 63.54 mm
DDA + lipid (P. acnes PRP-046 [17]; 1% (v/v) triolein): 60.81 mm
DDA (P. acnes PRP-046 [17]; single replicate): 53.81 mm
DDA (P. acnes PRP-046 [17]; Table 12 series): 50.29 mm
DDA + salt (P. acnes PRP-053 [18]): 54.42 mm
DDA + lipid (P. acnes PRP-053 [18]; 1% (v/v) triolein): 51.08 mm
DDA (P. acnes PRP-053 [18]; single replicate): 43.78 mm
DDA (P. acnes PRP-053 [18]; Table 12 series): 50.18 mm
DDA + salt (P. acnes PRP-068 [19]): 54.73 mm
DDA + lipid (P. acnes PRP-068 [19]; 1% (v/v) triolein): 49.56 mm
DDA (P. acnes PRP-068 [19]; single replicate): 52.90 mm
DDA (P. acnes PRP-068 [19]; Table 12 series): 51.12 mm
DDA (P. acnes NCTC 737 [20]): 49.75 mm and 42.05 (±1.16) mm
DDA + lipid (P. acnes NCTC 737 [20]): 44.03 mm
DDA + salt (P. acnes NCTC 737 [20]): 50.28 mm
DDA + salt & lipid (P. acnes NCTC 737 [20]): 49.96 mm and 49.54 (±1.34) mm
